Test [1] concerns the target Tryparedoxin peroxidase I from Leishmania major (LmTXNPx) (Leishmania major). Description: crystal structure; hanging drop vapor diffusion at 293 K; 12 mg/mL protein in 20 mM Tris-HCl pH 7.5 with 50 mM DTT (reduced); pentamer in the asymmetric unit, decamer from two pentamers of adjacent asymmetric units.
For test [2], the target named is T1, LmTXNPx (Leishmania major, UniProt Q4QF76). Description: Surface plasmon resonance, immobilized LmTXNPx. The class given is binding. The note with it: SPR, 1:1 steady-state affinity model. The method, then: SPR experiments were carried out using a SensiQ Pioneer system (SensiQ, ICxNomadics Inc.). The interaction of the immobilized protein with the analytes was detected by mass concentration-dependent changes of the refractive index on the sensor chip surface. The changes in the observed SPR signal are expressed as Resonance Units (RU). Typically, a response change of 1000 RU corresponds to a change in the surface concentration on the sensor chip of about 1 ng of protein per mm^2.
The sensor chips (COOH5 SensiQ) were chemically activated by injection of 250 μl of a 1:1 mixture of N-hydroxysuccinimide (50 mM) and N-ethyl-N-(3-dimethylaminopropyl)carbodiimide (200 mM) at a flow rate of 25 μl/min. Recombinant LmTXNPx was immobilized on the activated sensor chip via amine coupling. The reaction was carried out at a rate of […] in 20 mM sodium acetate at pH 4.5; the remaining ester groups were blocked by injecting 100 μL of 1 M ethanolamine hydrochloride. Recombinant LmTXNPx was captured to approximately 2000 RU. The analytes were dissolved at a concentration of 10 mM or 20 mM in dimethylsulfoxide (DMSO), and diluted 1:100 in HEPES-buffered saline (HBS: 10 mM HEPES, pH 7.4; 150 mM NaCl; 0.005% surfactant P20).
FastStep injections of samples (100 or 200 μM analytes in HBS + 1% DMSO), and reference buffer (HBS + 1% DMSO) were performed: either the inhibitor and reference buffer were automatically diluted in HBS and injected by 7 serial doubling steps (step contact time = 15 s, nominal flow rate = 200 μl/min). The following analytes were injected: 0–17 s: analyte concentration = 3.12 μM; 17–33 s: 6.25 μM; 33–48 s: 12.5 μM; 48–62 s: 25 μM; 63–78 s: 50 μM; 78–93 s: 100 μM; 94–100 s: 200 μM; for each injection, a maximal RU value was obtained. In control experiments, the sensor chip was treated as described above in the absence of immobilized protein.
Each sensorgram is the average of three different experiments. Sensorgrams were subjected to global analysis using QDat software 2.2.0.23, and for each analyte concentration a % Response was calculated, allowing a local Rmax fit (according to the molecular weight of each compound) and displaying as a response relative to the Rmax. % Response vs. analyte concentration was plotted and a KD value was calculated for each analyte by fitting a simple 1:1 steady-state affinity model to the data.

The target of test [3] is T1, LmTXNPx. Description: HRP-H2O2 competition assay (LmTXNPx inhibition assay). The format is biochemical. Particulars: residual activity of HRP; HRP 2 μM, H2O2 0.25 μM, 2.5 μM LmTXNPx, 100 μM inhibitors, sodium phosphate buffer pH 7.4, 25°C. The text has this:
To determine the ability of the selected compounds to inhibit the catalytic activity of LmTXNPx, we used the horseradish peroxidase (HRP)-H2O2 competition assay developed by Augusto and co-workers[16]. HRP is well known to react with H2O2 in a two-electron oxidation process that leads to the formation of HRP compound I (HRP-I), a stable HRP oxidized intermediate that can be followed at 398 nm. Reduced LmTXNPx competes with HRP for the H2O2 substrate, leading to a decrease in HRP-I yield that is proportional to LmTXNPx concentration. The addition of LmTXNPx inhibitors leads to a decrease in free LmTXNPx concentration and consequent increase in the HRP-I yield.
Competition kinetics have been performed for determining the activity of the compounds selected by HTD. The ability of the compounds to inhibit the H2O2 reduction by LmTXNPx has been determined by competition approach utilizing the well-known reactivity of H2O2 with horseradish peroxidase (HRP)[16][20][26]. HRP is a heme-containing peroxidase, which uses hydrogen peroxide (by reducing it to water) to oxidize different organic substrates to free radicals. The reaction takes place in three steps: • PFe(III) + H2O2 → P^·+Fe(IV) = O + H2O • P^·+Fe(IV) = O + X → X^• + PFe(IV) = O • PFe(IV) = O + X + 2H^+ → PFe(III) + X^· + H2O
Where PFe(III) is HRP (the native protein), P^·+Fe(IV) = O is the HRP compound I (HRP-I), PFe(IV) = O is the HRP compound II (HRP-II) and X is a generic substrate. The formation of HPR-I results in a change in light absorption in the visible range (Δε403 nm = 5.4 × 10^4 M^−1cm^−1). For kinetic studies the HRP oxidation is monitored at 398 nm (Δε398 nm = 4.2 × 10^4 M^−1cm^−1) instead of 403 nm (wavelength corresponding to the maximum of HRP absorbance) in order to avoid interferences arising from HRP-I reduction to HRP-II. This method is usually used to determine the second order rate constant of 2Cys- Peroxiredoxin reaction with hydrogen peroxide and peroxinitrite.
Thus, H2O2-mediated HRP oxidation is a two-electron oxidation process, leading to the formation of HRP-I, followed at 398 nm. The addition of increasing concentrations of pre-reduced LmTXNPx led to a lower yield in HRP-I since two reactions take place in solution: [drawing 1] [drawing 2]
Where I indicates the inhibitor and LmTXNPx-I indicates the complex between LmTXNPx and the inhibitor. The addition of active LmTXNPx inhibitors led to a decrease in the free LmTXNPx and the consequent recover in the HRP-I yield and therefore to a partial or total recover of the ΔA.
The HRP-based indirect kinetic assays to test the inhibitors was performed in the following way: HRP 2 μM was exposed to H2O2 0.25 μM in sodium phosphate buffer pH 7.4 and 25°C, either in the absence or in the presence of the indicated concentrations of reduced LmTXNPx and in the absence or in the presence of inhibitors. The relative changes in absorbance at 398 nm (ΔA/ΔA0), reflecting HRP-I formation, were determined.
(§1) The compounds ability to inhibit TXNPx has been evaluated by simply measuring the following ratio: ΔA/ΔA0 where ΔA0 is the difference in absorbance between HRP and compound I (ΔA0 = 0.04) and ΔA is the difference in absorbance between HRP and compound I in the presence of LmTXNPx and 100 μM inhibitors. All the compounds have been previously tested for their ability to inhibit HRP at a concentration of 100 μM.

Test [4] addresses T2, horseradish peroxidase (HRP) (Armoracia rusticana, UniProt P00433).
T2 sequence (P00433 31-353): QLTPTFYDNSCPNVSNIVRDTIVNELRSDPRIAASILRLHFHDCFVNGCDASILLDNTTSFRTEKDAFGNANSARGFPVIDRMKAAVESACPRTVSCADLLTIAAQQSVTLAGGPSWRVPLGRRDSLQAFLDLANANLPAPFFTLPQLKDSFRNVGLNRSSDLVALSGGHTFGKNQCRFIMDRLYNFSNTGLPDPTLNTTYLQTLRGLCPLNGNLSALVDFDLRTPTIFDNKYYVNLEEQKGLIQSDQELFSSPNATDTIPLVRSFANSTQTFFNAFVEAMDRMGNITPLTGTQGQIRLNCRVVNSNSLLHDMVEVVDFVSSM
The test can be described thus: HRP inhibition control (compounds tested for their ability to inhibit HRP). The format is biochemical. The note with it: compound at 100 μM. Here is the method: as §1

Regarding “Tryparedoxin peroxidase I from Leishmania major (LmTXNPx) (enzyme)”, the stoichiometry N in test [1] turned out to be 10.

Consider `COc1cc2cc(CN(Cc3ccc(F)cc3)Cc3nnnn3Cc3cccc(-c4ccccc4)c3)c(=O)[nH]c2cc1OC` [Compound 6, 3-((((1-([1,1′-Biphenyl]-3-ylmethyl)-1H-tetrazol-5-yl)methyl)(4-fluorobenzyl)amino)methyl)-6,7-dimethoxyquinolin-2(1H)-one], for which the dissociation constant (Kd) on LmTXNPx [2] came out at 52 ± 1 µM. Further, at LmTXNPx [3], the “(ΔA/ΔA0) × 100” value was 75 ± 9%. The HRP inhib. entry in test [4] is on record as “No”.

As usually defined, the stoichiometry N is a count of units in the complex or per binding partner. In general, Kd refers to the equilibrium constant for the complex coming apart. A lower Kd goes with tighter binding.
